Article PMC12388884, “Discovery of Small-Molecule PD-L1 Inhibitors via Virtual Screening and Their Immune-Mediated Anti-Tumor Effects” (Pharmaceuticals, 2025)
Numbered stars: 1 amine (or outer) side, 2 acyl side, 3 side chain; on linkers, the order of the positions; unused ones are H or OH. Bridge positions count the residues as written; N and C are the ends. Square brackets hold non-standard residues; d marks the D form. Peptide text beside a SMILES is read from it. * marks the point of attachment. pTerphenylCO(4''-OnC5H11) = CCCCCOc1ccc(-c2ccc(-c3ccc(C(=O)*)cc3)cc2)cc1; Orn(4R-OH,5R-OH) = O=C([C@H](C[C@@H](O)[C@@H](O)N[*:3])N[*:1])[*:2]; hTyr(3S-OH,4S-OH) = N[C@H](C(=O)O)[C@H](O)[C@@H](O)c1ccc(O)cc1; Pro(3S-OH,4S-Me) = C[C@H]1CN[C@H](C(=O)O)[C@H]1O; Hyp = O=C(O)[C@@H]1C[C@@H](O)CN1

Biological target: T1, PD-L1 (Homo sapiens, UniProt Q9NZQ7)
T1 construct: gene CD274
Assay: bio-layer interferometry (BLI), immobilized recombinant human PD-L1, […] global kinetic fit
Assay type: binding

T1 sequence (Q9NZQ7 19-290): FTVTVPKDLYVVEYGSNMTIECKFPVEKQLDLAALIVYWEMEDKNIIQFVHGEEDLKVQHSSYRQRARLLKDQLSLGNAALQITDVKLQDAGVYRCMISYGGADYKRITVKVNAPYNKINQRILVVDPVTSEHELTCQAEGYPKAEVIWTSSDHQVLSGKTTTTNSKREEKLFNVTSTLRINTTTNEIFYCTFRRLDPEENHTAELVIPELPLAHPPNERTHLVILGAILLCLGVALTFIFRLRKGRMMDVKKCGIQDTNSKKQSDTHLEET

With `CCCCCOc1ccc(-c2ccc(-c3ccc(C(=O)N[C@H]4C[C@@H](O)[C@@H](O)NC(=O)[C@@H]5[C@@H](O)[C@@H](C)CN5C(=O)[C@H]([C@@H](C)O)NC(=O)[C@H]([C@H](O)[C@@H](O)c5ccc(O)cc5)NC(=O)[C@@H]5C[C@@H](O)CN5C(=O)[C@H]([C@@H](C)O)NC4=O)cc3)cc2)cc1` [anidulafungin] ({pTerphenylCO(4''-OnC5H11)}-[Orn(4R-OH,5R-OH)]T[Hyp][hTyr(3S-OH,4S-OH)]T[Pro(3S-OH,4S-Me)]; lactam 1-C) the Kd was 76.9 µM.
